Data: ChEMBL document CHEMBL1201862, “PubChem BioAssay data set” (2004)
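Protocol summary: plate cells (96-well), add compound at 5 concentrations, incubate 48 h, interpolate endpoints linearly. GI50: concentration for 50% inhibition of growth.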 Calls of active or inactive are those of the source. No stated cut-off is given here; in the data, active = GI50 up to about 1.1 µM and inactive = higher.

What was measured:
Assay in all cases: inhibition of tumour cell growth, NCI panel, 48 h
SK-MEL-2 = system: SK-MEL-2
SF-295 = system: SF-295
EKVX = system: EKVX
UACC-257 = system: UACC-257
HCC 2998 = system: HCC 2998
HOP-62 = system: HOP-62
OVCAR-4 = system: OVCAR-4
Malme-3M = system: Malme-3M
UACC-62 = system: UACC-62
SK-OV-3 = system: SK-OV-3
KM12 = system: KM12
OVCAR-8 = system: OVCAR-8
UO-31 = system: UO-31
HT-29 = system: HT-29
SW-620 = system: SW-620
RXF 393 = system: RXF 393
A498 = system: A498

Compound	GI50 (SK-MEL-2)	GI50 (SF-295)	GI50 (EKVX)	GI50 (UACC-257)	GI50 (HCC 2998)	GI50 (HOP-62)	GI50 (OVCAR-4)	GI50 (Malme-3M)	GI50 (UACC-62)	GI50 (SK-OV-3)	GI50 (KM12)	GI50 (OVCAR-8)	GI50 (UO-31)	GI50 (HT-29)	GI50 (SW-620)	GI50 (RXF 393)	GI50 (A498)
Cc1c2n(c3ccccc13)CC1C2N(C)OC1(C)C (stereo not given)	> 100 µM (inactive)	> 100 µM (inactive)	> 100 µM (inactive)	> 100 µM (inactive)	> 100 µM (inactive)	83.8 µM (inactive)	> 100 µM (inactive)	> 100 µM (inactive)	> 100 µM (inactive)	> 100 µM (inactive)	> 100 µM (inactive)	> 100 µM (inactive)	86.7 µM (inactive)	> 100 µM (inactive)	–	–	–
COC(=O)N/N=C(\C)CC(=O)Nc1cccc([N+](=O)[O-])c1	> 100 µM (inactive)	> 100 µM (inactive)	> 100 µM (inactive)	> 100 µM (inactive)	> 100 µM (inactive)	> 100 µM (inactive)	–	> 100 µM (inactive)	> 100 µM (inactive)	> 100 µM (inactive)	> 100 µM (inactive)	> 100 µM (inactive)	> 100 µM (inactive)	> 100 µM (inactive)	> 100 µM (inactive)	> 100 µM (inactive)	–
CC1=N/C(=C\c2cccc([N+](=O)[O-])c2)C(=O)O1	> 100 µM (inactive)	> 100 µM (inactive)	> 100 µM (inactive)	> 100 µM (inactive)	> 100 µM (inactive)	> 100 µM (inactive)	–	> 100 µM (inactive)	> 100 µM (inactive)	–	> 100 µM (inactive)	> 100 µM (inactive)	> 100 µM (inactive)	> 100 µM (inactive)	> 100 µM (inactive)	> 100 µM (inactive)	> 100 µM (inactive)
CCC1C(=O)OCc2c1cc1n(c2=O)CCC12OCCO2 (stereo not given)	> 100 µM (inactive)	> 100 µM (inactive)	> 100 µM (inactive)	> 100 µM (inactive)	63.8 µM (inactive)	> 100 µM (inactive)	> 100 µM (inactive)	–	> 100 µM (inactive)	> 100 µM (inactive)	> 100 µM (inactive)	> 100 µM (inactive)	> 100 µM (inactive)	> 100 µM (inactive)	> 100 µM (inactive)	–	> 100 µM (inactive)
COC(=O)C(CC(=O)Nc1ccc(C)cc1)C(=O)C(=O)Nc1c(C(C)C)cccc1C(C)C (stereo not given)	> 100 µM (inactive)	–	> 100 µM (inactive)	–	> 100 µM (inactive)	> 100 µM (inactive)	> 100 µM (inactive)	> 100 µM (inactive)	55.2 µM (inactive)	> 100 µM (inactive)	–	> 100 µM (inactive)	> 100 µM (inactive)	–	> 100 µM (inactive)	> 100 µM (inactive)	> 100 µM (inactive)
CC(=O)CCn1ncc(Cl)c(Cl)c1=O	14.2 µM (inactive)	19.1 µM (inactive)	18.6 µM (inactive)	16.5 µM (inactive)	9.51 µM (inactive)	19.7 µM (inactive)	9.95 µM (inactive)	20.7 µM (inactive)	17.2 µM (inactive)	–	17.7 µM (inactive)	23.2 µM (inactive)	20 µM (inactive)	14.1 µM (inactive)	19 µM (inactive)	17.3 µM (inactive)	24.9 µM (inactive)
Cc1ccc(S(=O)(=O)C2c3nc4ccccc4cc3-c3nc4ccccc4nc32)cc1 (stereo not given)	> 100 µM (inactive)	–	> 100 µM (inactive)	> 100 µM (inactive)	> 100 µM (inactive)	> 100 µM (inactive)	> 100 µM (inactive)	> 100 µM (inactive)	> 100 µM (inactive)	0.693 µM (active)	> 100 µM (inactive)	> 100 µM (inactive)	> 100 µM (inactive)	–	> 100 µM (inactive)	–	> 100 µM (inactive)
O=[N+]([O-])c1ccc(NSc2ccccc2)cc1	42.9 µM (inactive)	27.6 µM (inactive)	30 µM (inactive)	29.3 µM (inactive)	50.6 µM (inactive)	33.3 µM (inactive)	–	> 100 µM (inactive)	20.1 µM (inactive)	29.9 µM (inactive)	27.8 µM (inactive)	19.8 µM (inactive)	26.8 µM (inactive)	–	24.2 µM (inactive)	20 µM (inactive)	2.37 µM (inactive)
O=S1(=O)CSc2ccc3ccccc3c2-c2c1ccc1ccccc21	–	> 100 µM (inactive)	–	> 100 µM (inactive)	> 100 µM (inactive)	> 100 µM (inactive)	> 100 µM (inactive)	> 100 µM (inactive)	> 100 µM (inactive)	–	> 100 µM (inactive)	> 100 µM (inactive)	> 100 µM (inactive)	> 100 µM (inactive)	> 100 µM (inactive)	> 100 µM (inactive)	–
COc1ccc(CCn2c(=O)c3ccccc3n(C)c2=O)cc1	20.5 µM (inactive)	30.2 µM (inactive)	60.4 µM (inactive)	61.7 µM (inactive)	21 µM (inactive)	26.4 µM (inactive)	> 100 µM (inactive)	48 µM (inactive)	24.2 µM (inactive)	14.6 µM (inactive)	8.77 µM (inactive)	58.6 µM (inactive)	40.4 µM (inactive)	23.3 µM (inactive)	15.9 µM (inactive)	–	62.2 µM (inactive)
COc1cc(C(N)=O)c(OC)c(OC)c1OC	> 100 µM (inactive)	> 100 µM (inactive)	> 100 µM (inactive)	–	> 100 µM (inactive)	> 100 µM (inactive)	> 100 µM (inactive)	–	> 100 µM (inactive)	> 100 µM (inactive)	> 100 µM (inactive)	> 100 µM (inactive)	> 100 µM (inactive)	> 100 µM (inactive)	> 100 µM (inactive)	> 100 µM (inactive)	> 100 µM (inactive)
NC(=S)N/N=C1\C(=O)N(c2cccc([N+](=O)[O-])c2)C(=O)C1C(=O)Nc1cccc([N+](=O)[O-])c1 (stereo not given)	> 100 µM (inactive)	> 100 µM (inactive)	> 100 µM (inactive)	> 100 µM (inactive)	> 100 µM (inactive)	> 100 µM (inactive)	> 100 µM (inactive)	> 100 µM (inactive)	> 100 µM (inactive)	> 100 µM (inactive)	–	> 100 µM (inactive)	> 100 µM (inactive)	> 100 µM (inactive)	> 100 µM (inactive)	> 100 µM (inactive)	> 100 µM (inactive)
O=C(O)c1c[nH]c2c(ccc3ncccc32)c1=O	> 100 µM (inactive)	–	> 100 µM (inactive)	–	> 100 µM (inactive)	> 100 µM (inactive)	> 100 µM (inactive)	> 100 µM (inactive)	> 100 µM (inactive)	> 100 µM (inactive)	> 100 µM (inactive)	> 100 µM (inactive)	> 100 µM (inactive)	> 100 µM (inactive)	> 100 µM (inactive)	> 100 µM (inactive)	> 100 µM (inactive)
CC(=O)OCC1OC(OC2C(CSC3OC(COC(C)=O)C(OC(C)=O)C(OC(C)=O)C3OC(C)=O)OC(OC(C)=O)C(OC(C)=O)C2OC(C)=O)C(OC(C)=O)C(OC(C)=O)C1OC(C)=O (stereo not given)	–	> 100 µM (inactive)	> 100 µM (inactive)	–	> 100 µM (inactive)	> 100 µM (inactive)	> 100 µM (inactive)	> 100 µM (inactive)	> 100 µM (inactive)	> 100 µM (inactive)	> 100 µM (inactive)	> 100 µM (inactive)	> 100 µM (inactive)	> 100 µM (inactive)	> 100 µM (inactive)	–	–
Nc1c(S(=O)(=O)c2ccc(Cl)cc2)c2nc3ccccc3nc2n2ccnc12	> 100 µM (inactive)	> 100 µM (inactive)	93.8 µM (inactive)	> 100 µM (inactive)	> 100 µM (inactive)	–	14.5 µM (inactive)	> 100 µM (inactive)	–	38.4 µM (inactive)	> 100 µM (inactive)	48.4 µM (inactive)	> 100 µM (inactive)	> 100 µM (inactive)	–	–	–
CN1CCn2c(Br)ccc2C1=O	> 100 µM (inactive)	> 100 µM (inactive)	> 100 µM (inactive)	> 100 µM (inactive)	> 100 µM (inactive)	> 100 µM (inactive)	> 100 µM (inactive)	> 100 µM (inactive)	> 100 µM (inactive)	–	> 100 µM (inactive)	> 100 µM (inactive)	> 100 µM (inactive)	> 100 µM (inactive)	> 100 µM (inactive)	> 100 µM (inactive)	> 100 µM (inactive)
O=S1(=O)c2ccccc2N(O)C2=NCCN21	> 100 µM (inactive)	> 100 µM (inactive)	> 100 µM (inactive)	> 100 µM (inactive)	> 100 µM (inactive)	> 100 µM (inactive)	–	> 100 µM (inactive)	> 100 µM (inactive)	> 100 µM (inactive)	> 100 µM (inactive)	> 100 µM (inactive)	> 100 µM (inactive)	> 100 µM (inactive)	> 100 µM (inactive)	> 100 µM (inactive)	28.6 µM (inactive)
CC1OC(OC2C(OC(=O)[C@]34CCC(C)(C)CC3C3=CCC5[C@@]6(C)C[C@H](O)[C@H](OC7OC(COC8OC(CO)C(O)C(O)C8O)C(O)C(O)C7O)[C@@](C)(C(=O)O)C6CC[C@@]5(C)C3(C)CC4)OCC(O)C2O)C(O)C(O)C1OC1OCC(O)C(O)C1O (stereo not given in full)	> 100 µM (inactive)	> 100 µM (inactive)	> 100 µM (inactive)	> 100 µM (inactive)	> 100 µM (inactive)	> 100 µM (inactive)	–	> 100 µM (inactive)	> 100 µM (inactive)	> 100 µM (inactive)	> 100 µM (inactive)	> 100 µM (inactive)	> 100 µM (inactive)	> 100 µM (inactive)	> 100 µM (inactive)	> 100 µM (inactive)	> 100 µM (inactive)
